In assay [1] the target is T1, CCR2 (Homo sapiens, UniProt P41597).
T1 construct: host or cells: HEK293T, transient
T1 sequence (P41597 1-360 isoform P41597-2): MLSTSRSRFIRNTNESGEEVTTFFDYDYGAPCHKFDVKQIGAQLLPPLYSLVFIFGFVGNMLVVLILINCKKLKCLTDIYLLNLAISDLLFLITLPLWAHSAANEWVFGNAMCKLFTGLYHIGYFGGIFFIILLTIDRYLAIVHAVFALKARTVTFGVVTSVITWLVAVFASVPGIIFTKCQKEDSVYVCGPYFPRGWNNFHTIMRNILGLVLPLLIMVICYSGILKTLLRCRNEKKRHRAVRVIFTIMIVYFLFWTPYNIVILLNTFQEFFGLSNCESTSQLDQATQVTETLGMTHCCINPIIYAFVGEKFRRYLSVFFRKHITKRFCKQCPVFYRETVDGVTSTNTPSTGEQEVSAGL
Also on record: method as in PMID 30256641. As to conditions: cited from earlier work.

Assay [2] deals with T2, CCR1 (Homo sapiens, UniProt P32246).
T2 sequence (P32246 1-355): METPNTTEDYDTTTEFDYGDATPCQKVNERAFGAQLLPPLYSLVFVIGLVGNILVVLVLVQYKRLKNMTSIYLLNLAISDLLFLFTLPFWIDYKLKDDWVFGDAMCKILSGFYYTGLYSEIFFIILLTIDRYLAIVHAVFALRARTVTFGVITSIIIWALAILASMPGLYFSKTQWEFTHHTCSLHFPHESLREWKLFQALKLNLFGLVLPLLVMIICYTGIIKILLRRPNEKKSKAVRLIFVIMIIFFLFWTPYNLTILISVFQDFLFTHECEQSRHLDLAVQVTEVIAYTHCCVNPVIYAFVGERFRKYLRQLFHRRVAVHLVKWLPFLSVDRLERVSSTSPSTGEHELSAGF
Also on record: Promega pNLF1-C (Nluc) #CCR010TN00; host or cells: HEK293T, transient (PEI); method as in PMID 30256641. The note with it: binding; cited from earlier work.

For assay [3], the target named is T1, CCR2. More on the design: method as in PMID 35838163. The note with it: cellular setup; cited from earlier work.
Assay [4] has as its target T1, CCR2. More on the design: method as in PMID 35838163. As to conditions: membrane-based setup; cited from earlier work.
Assay [5] concerns the target T2, CCR1. Also on record: Promega pNLF1-C (Nluc) #CCR010TN00; host or cells: HEK293T, transient (PEI); method as in PMID 35838163. The note with it: cited from earlier work.
The target in assay [6] is T2, CCR1. Kind of assay: Live cell NanoBRET binding assay, HEK293T cells expressing CCR1_Nluc. As to conditions: 12 (1000 nM), live HEK293T cells; read-out: Ki, live cells. More on the design: Promega pNLF1-C (Nluc) #CCR010TN00; host or cells: HEK293T, transient (PEI). For orientation: BRET reads energy transfer from a luciferase to a nearby fluorophore.
The target of assay [7] is T1, CCR2. As to the kind of experiment: NanoBRET competition binding assay for CCR2 based on 7, as previously reported. The note with it: compound at 100 μM; read-out: % inh. of tracer binding, CCR2. From the text: With 6 (Figure 1), a first lead structure for intracellular CCR1 inhibition that features an approximately 20-fold CCR1 over CCR2 selectivity was previously discovered by Ortiz Zacarías et al.([33]) In order to discover new chemotypes for selective CCR1 over CCR2 inhibition, we aimed to apply our novel NanoBRET competition binding assay for CCR1 in combination with our recently published CCR2 competition binding assay based on 7.[47] In our first attempt, we screened a small in-house library enriched with intracellular GPCR ligands and structural analogues thereof. […] Additionally, we tested 23 for binding to the IABS of CCR9 and CXCR2 using our recently reported NanoBRET-based assay platform (Figure 6C).[44],[45] In the course of these studies, we detected no binding of 23 to CCR9 and CXCR2 up to a concentration of 20 μM. Since cell lineage-dependent effects have been observed for CCR1 antagonists,[59] we studied the CCR1 over CCR2 selectivity of 23 by using a previously reported radioligand binding assay with membrane preparations from osteosarcoma (U2OS) cells stably expressing human CCR1 or CCR2.[33] […] In agreement with these previous reports,[33] we observed a reduction in CCR1 over CCR2 selectivity when moving from membrane-based binding assays to cell-based functional assays. […] To investigate a potential signaling bias of 23, we tested the compound by means of a NanoBiT miniGi recruitment assay.[60] […] Thus, this indicated no strong signaling bias of 23 (Figures S9E and S10C). To elucidate the SAR of this new scaffold for selective CCR1 over CCR2 inhibition, we synthesized several analogues of 23 (24–40) and tested them by means of our NanoBRET competition binding assays (Schemes S2 and S3, Table 1, Figures 6F and S11). First, we aimed to examine the impact of the stereochemistry of 23 on CCR1 affinity. As for the structurally related pyrrolone 4, large differences in CCR2 affinity between the eutomer 4-[R] and the distomer 4-[S] were described.[61] […] Furthermore, we identified the 4-hydroxyphenethyl group at position 1 of the pyrrolone scaffold as highly important for CCR1 affinity and selectivity. Its presence seems to block CCR2 binding, also when combined with the structural features of the high-affinity CCR2 ligand 5, as exemplified by 24. Especially the 4-hydroxy group at this moiety is essential for CCR1 binding (see 25 and 26). […] In position 5 of the pyrrolone, several aromatic and aliphatic substituents were tolerated (see 31–35).

Assay [8] addresses T2, CCR1. As to the kind of experiment: Membrane-based NanoBRET competition assay with 12 (2000 nM) and CCR1_Nluc membranes. Type of assay: binding. Also on record: Promega pNLF1-C (Nluc) #CCR010TN00; host or cells: HEK293T, transient (PEI). As to conditions: 12 (2000 nM).
In assay [9] the target is T3, CXCR2 (Homo sapiens, UniProt P25025).
T3 construct: host or cells: HEK293T, transient
T3 sequence (P25025 1-360): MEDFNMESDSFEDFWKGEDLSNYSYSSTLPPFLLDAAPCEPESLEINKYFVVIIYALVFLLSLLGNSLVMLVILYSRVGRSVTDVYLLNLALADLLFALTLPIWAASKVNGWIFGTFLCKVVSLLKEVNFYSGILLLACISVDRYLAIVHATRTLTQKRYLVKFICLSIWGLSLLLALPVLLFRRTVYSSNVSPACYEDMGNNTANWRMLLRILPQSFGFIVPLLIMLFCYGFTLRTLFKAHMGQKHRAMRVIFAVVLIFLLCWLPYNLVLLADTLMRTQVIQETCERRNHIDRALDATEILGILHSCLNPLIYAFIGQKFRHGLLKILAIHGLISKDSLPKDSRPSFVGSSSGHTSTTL
As to the kind of experiment: NanoBRET-based assay for binding to the IABS of CXCR2, as previously reported. The note with it: compound at 20 μM; read-out: % inh. of tracer binding, CXCR2. From the text: (§1) With 6 (Figure 1), a first lead structure for intracellular CCR1 inhibition that features an approximately 20-fold CCR1 over CCR2 selectivity was previously discovered by Ortiz Zacarías et al.([33]) In order to discover new chemotypes for selective CCR1 over CCR2 inhibition, we aimed to apply our novel NanoBRET competition binding assay for CCR1 in combination with our recently published CCR2 competition binding assay based on 7.[47] In our first attempt, we screened a small in-house library enriched with intracellular GPCR ligands and structural analogues thereof. […] Additionally, we tested 23 for binding to the IABS of CCR9 and CXCR2 using our recently reported NanoBRET-based assay platform (Figure 6C).[44],[45] In the course of these studies, we detected no binding of 23 to CCR9 and CXCR2 up to a concentration of 20 μM. Since cell lineage-dependent effects have been observed for CCR1 antagonists,[59] we studied the CCR1 over CCR2 selectivity of 23 by using a previously reported radioligand binding assay with membrane preparations from osteosarcoma (U2OS) cells stably expressing human CCR1 or CCR2.[33] […] In agreement with these previous reports,[33] we observed a reduction in CCR1 over CCR2 selectivity when moving from membrane-based binding assays to cell-based functional assays. […]

The target of assay [10] is T4, CCR9 (Homo sapiens, UniProt P51686).
T4 construct: host or cells: HEK293T, transient
T4 sequence (P51686 1-369): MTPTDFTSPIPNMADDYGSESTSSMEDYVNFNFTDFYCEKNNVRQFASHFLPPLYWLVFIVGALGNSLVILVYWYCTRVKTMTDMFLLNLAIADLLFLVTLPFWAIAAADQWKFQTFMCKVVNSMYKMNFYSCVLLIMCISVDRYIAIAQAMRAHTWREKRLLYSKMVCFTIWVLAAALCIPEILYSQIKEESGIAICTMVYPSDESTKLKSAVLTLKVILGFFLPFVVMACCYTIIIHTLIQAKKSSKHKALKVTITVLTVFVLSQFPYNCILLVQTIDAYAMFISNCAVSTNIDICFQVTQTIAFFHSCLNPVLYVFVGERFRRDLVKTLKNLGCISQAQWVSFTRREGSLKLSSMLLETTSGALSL
Kind of assay: NanoBRET-based assay for binding to the IABS of CCR9, as previously reported. The note with it: compound at 20 μM; read-out: % inh. of tracer binding, CCR9.
Source text: as §1

SMILES strings stand for the structures. pKd, pKi: −log10 of the molar value. Like-named read-outs stand apart in the source and are kept apart here.

For `O=C(C1=C(O)C(=O)N(c2ccc(Br)cc2F)C1c1cccc(Br)c1)C1CC1` (centres unmarked) [compound 6], the “CCR2, % @ 1 μM” value in [1] is given as 45%. Besides, the “CCR1 over CCR2 selectivity” value in assay [2] is reported as “approximately 20 fold”.
In general, pKd refers to the Kd on a negative log10 scale, so that one unit is a factor of ten. For `CN(C)c1ccc2c(-c3cc(C(=O)NCCOCCOCCn4cc(CNC(=O)c5ccc(Oc6ncc(Cl)cc6NS(=O)(=O)c6ccc(Cl)c(C(F)(F)F)c6)cc5)nn4)ccc3C(=O)[O-])c3ccc(=[N+](C)C)cc-3oc2c1` [compound 7], the pKd in assay [3] was 6.94; in assay [4] it was 6.58. Further, the “KD(CCR1) / binding to CCR1” value in [5] is “no relevant binding”.
What is called pKi is the Ki on a negative log10 scale, so that one unit is a factor of ten. What is called Ki is the equilibrium dissociation constant of an inhibitor or competing ligand from its target. As to `NC(=O)CSc1nnc(-c2ccc(Cl)cc2)n1C1CCCCC1` [compound 43], the pKi in [6] was 5.89. Moreover, in assay [7], the inhibition at 100 µM was 29%. In [8] (CCR1_Nluc membranes, read-out: Ki, CCR1 (converted)), the Ki was 357 nM. Also, the “% inh. of tracer binding, CCR1” value in assay [8] (compound at 20 μM) is no less than 50%. For the same compound, the inhibition at 20 µM is 2% in [9] and 15% in assay [10].

Values taken from article PMC11249626, “Fluorophore-Labeled Pyrrolones Targeting the Intracellular Allosteric Binding Site of the Chemokine Receptor CCR1” (ACS Pharmacology & Translational Science, 2024).
